Experimental data reported in ChEMBL document CHEMBL1255530, “3D-QSAR CoMFA study of benzoxazepine derivatives as mGluR5 positive allosteric modulators” (Bioorg Med Chem Lett, 2010).

Each compound was assayed against Metabotropic glutamate receptor 5 (Rattus norvegicus, UniProt P31424) (assay: Positive allosteric modulation of rat mGluR5 expressed in HEK293 cells).
Metabotropic glutamate receptor 5, sequence (P31424 whole entry): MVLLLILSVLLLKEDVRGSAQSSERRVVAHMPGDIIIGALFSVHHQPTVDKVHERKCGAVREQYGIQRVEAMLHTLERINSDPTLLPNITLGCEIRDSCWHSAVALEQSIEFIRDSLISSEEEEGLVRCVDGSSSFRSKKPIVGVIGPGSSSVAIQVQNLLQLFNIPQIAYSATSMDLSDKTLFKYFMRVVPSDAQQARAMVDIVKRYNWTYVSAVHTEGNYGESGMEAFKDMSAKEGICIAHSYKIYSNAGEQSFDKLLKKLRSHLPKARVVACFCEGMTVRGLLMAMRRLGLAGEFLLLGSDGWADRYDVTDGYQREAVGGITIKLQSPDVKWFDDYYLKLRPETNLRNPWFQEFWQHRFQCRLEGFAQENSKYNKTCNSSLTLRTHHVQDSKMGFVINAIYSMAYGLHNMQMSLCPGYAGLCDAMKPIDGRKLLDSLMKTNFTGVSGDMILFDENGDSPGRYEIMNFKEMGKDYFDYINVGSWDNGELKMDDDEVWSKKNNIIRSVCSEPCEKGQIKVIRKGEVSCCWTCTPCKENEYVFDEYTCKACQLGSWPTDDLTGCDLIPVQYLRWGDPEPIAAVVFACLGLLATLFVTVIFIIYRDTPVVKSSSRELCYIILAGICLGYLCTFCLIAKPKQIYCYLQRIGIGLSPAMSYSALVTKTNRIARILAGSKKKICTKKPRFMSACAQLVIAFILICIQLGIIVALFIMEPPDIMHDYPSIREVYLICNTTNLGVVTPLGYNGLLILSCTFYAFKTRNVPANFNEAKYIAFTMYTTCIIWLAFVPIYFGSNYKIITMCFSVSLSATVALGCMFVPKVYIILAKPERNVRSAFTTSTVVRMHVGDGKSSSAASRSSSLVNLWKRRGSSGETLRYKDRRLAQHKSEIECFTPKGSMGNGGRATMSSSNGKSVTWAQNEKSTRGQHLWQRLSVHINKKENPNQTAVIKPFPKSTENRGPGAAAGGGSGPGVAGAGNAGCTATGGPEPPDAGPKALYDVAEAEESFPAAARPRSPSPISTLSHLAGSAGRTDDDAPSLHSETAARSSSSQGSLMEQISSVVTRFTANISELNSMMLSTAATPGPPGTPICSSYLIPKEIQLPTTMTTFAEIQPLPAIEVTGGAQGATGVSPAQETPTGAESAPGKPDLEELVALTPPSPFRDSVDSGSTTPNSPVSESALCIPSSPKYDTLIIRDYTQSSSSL

| SMILES | EC50 [µM] |
| --- | --- |
| CCSc1nnc2c(n1)O[C@@H](c1ccc(OC(C)=O)cc1)N(C(C)=O)c1ccccc1-2 | 0.813 |
| CCSc1nnc2c(n1)O[C@@H](c1cccc(C)c1OC(C)=O)N(C(C)=O)c1ccccc1-2 | 2.82 |
| CCSc1nnc2c(n1)O[C@@H](c1ccc(N(C)C)cc1)N(C(C)=O)c1ccccc1-2 | 4.27 |
| CCSc1nnc2c(n1)O[C@@H](/C=C/c1ccco1)N(C(C)=O)c1ccccc1-2 | 1.17 |
| CCSc1nnc2c(n1)O[C@@H](c1cc(Br)ccc1OC)N(C(C)=O)c1ccccc1-2 | 0.12 |
| CCOc1cc([C@@H]2Oc3nc(SC)nnc3-c3ccccc3N2C(=O)CC)ccc1OC(=O)CC | 2.82 |
| CSc1nnc2c(n1)O[C@@H](c1ccc(Cl)cc1)N(C(C)=O)c1ccccc1-2 | 2.09 |
| CCSc1nnc2c(n1)O[C@@H](c1ccc(OC)c(Br)c1)N(C(C)=O)c1ccccc1-2 | 0.955 |
| CCSc1nnc2c(n1)O[C@@H](c1ccc(OC)cc1OC)N(C(C)=O)c1ccccc1-2 | 0.49 |
| CCSc1nnc2c(n1)O[C@@H](c1ccc(OCc3ccccc3)cc1)N(C(C)=O)c1ccccc1-2 | 6.03 |
| CCOc1cc([C@@H]2Oc3nc(SCC)nnc3-c3ccccc3N2C(C)=O)ccc1OC(C)=O | 1.95 |
| CCSc1nnc2c(n1)O[C@@H](c1cc(Cl)ccc1OC(C)=O)N(C(C)=O)c1ccccc1-2 | 1.58 |

Second part, the compound after the results:

| EC50 [µM] | SMILES |
| --- | --- |
| 0.676 | CCSc1nnc2c(n1)O[C@@H](c1ccc(Cl)cc1)N(C(C)=O)c1ccccc1-2 |
| 3.63 | CCC(=O)Oc1ccc([C@@H]2Oc3nc(SC)nnc3-c3ccccc3N2C(=O)CC)cc1 |
| 0.437 | C=CCSc1nnc2c(n1)O[C@@H](c1ccccn1)N(C(=O)CC)c1ccccc1-2 |
| 0.0575 | C=CCSc1nnc2c(n1)O[C@@H](c1cccs1)N(C(=O)CC)c1ccccc1-2 |
| 0.263 | CCCC(=O)N1c2ccccc2-c2nnc(SCC)nc2O[C@H]1c1cccs1 |
| 2.19 | CCOC(=O)COc1ccccc1[C@@H]1Oc2nc(SC)nnc2-c2ccccc2N1C(=O)CC |
| 3.72 | CCCCOc1ccccc1[C@@H]1Oc2nc(SC)nnc2-c2ccccc2N1C(=O)CC |
| 1.26 | CCSc1nnc2c(n1)O[C@@H](c1cccn1C)N(C(=O)CC)c1ccccc1-2 |
